Measurements: ChEMBL document CHEMBL5038623, “Synthesis and bioactivities of new N-terminal dipeptide mimetics with aromatic amide moiety: Broad-spectrum antibacterial activity and high antineoplastic activity” (Eur J Med Chem, 2022)
≈ marks a conversion by molar mass, not a printed value.

How the values were obtained:
[1] = Selectivity index, HC50 for hemolytic activity in rabbit RBC to MIC for antibacterial activity against methicillin-resistant Staphylococcus aureus ATCC 33591; format: toxicity; details: rabbit red blood cells (RBC), read-out: Selectivity Index
Escherichia coli [2] = assay: Antibacterial activity against Escherichia coli ATCC25922 assessed as reduction in microbial growth after 24 hrs by broth dilution method; format: functional; details: ATCC 25922
Staphylococcus aureus [3] = assay: Antibacterial activity against Staphylococcus aureus ATCC 6538 assessed as reduction in microbial growth after 24 hrs by broth dilution method; format: functional
Klebsiella pneumoniae = assay: Antibacterial activity against Klebsiella pneumoniae ATCC 700603 assessed as reduction in microbial growth after 24 hrs by broth dilution method; format: functional
Escherichia coli [4] = assay: Antibacterial activity against Escherichia coli ATCC25922 assessed as zone of inhibition incubated for 12 hrs by disc diffusion method; format: functional, ATCC 25922
Staphylococcus aureus [5] = assay: Antibacterial activity against Staphylococcus aureus ATCC 6538 assessed as zone of inhibition incubated for 12 hrs by disc diffusion method; format: functional
[6] = Hemolytic activity in rabbit RBC measured after 1 hrs by microplate reader assay; format: toxicity, cell-based, Oryctolagus cuniculus, Erythrocyte; details: rabbit red blood cells (RBC)
Staphylococcus aureus [7] = assay: Antibacterial activity against methicillin-resistant Staphylococcus aureus ATCC 33591 assessed as MIC incubated for 12 hrs

SMILES | selectivity ratio [1] | MIC (Escherichia coli [2]) | MIC (Staphylococcus aureus [3]) | MIC (Klebsiella pneumoniae) | diameter of the inhibition zone (DIZ) (Escherichia coli [4]) | diameter of the inhibition zone (DIZ) (Staphylococcus aureus [5]) | HC50 at 1 h [6] | MIC (Staphylococcus aureus [7])
C#Cc1cccc(NC(=O)[C@@H](N)Cc2ccccc2)c1 | > 62.5 | 39 µg/mL | 20 µg/mL | 39 µg/mL | 10 mm | 10.2 mm | > 1250 µg/mL | 20 µg/mL (≈ 75.7 µM)
CC(C)[C@H](N)C(=O)Nc1ccc(I)cc1 | 39.7 | 39 µg/mL | 20 µg/mL | 39 µg/mL |  | 17.6 mm | 794 µg/mL | 20 µg/mL (≈ 62.9 µM)
CC(C)[C@H](N)C(=O)Nc1ccc(F)cc1 | > 4 | 312 µg/mL | 312 µg/mL | 312 µg/mL | 6 mm | 6 mm | > 1250 µg/mL | 
C#Cc1ccc(NC(=O)[C@@H](N)C(C)CC)cc1 (stereo not given in full) | 20.8 | 20 µg/mL | 39 µg/mL | 39 µg/mL | 12.3 mm | 12 mm | 813 µg/mL | 39 µg/mL (≈ 169 µM)
